# Assay results reported in US20100144755A1 (Glaxo Group Limited, priority 2006, published 2010).
# Counter-ions that a name gives are not always drawn.
# System: influx of neutrophils to the lung in LPS-challenged rats
# Experiment: Rat LPS neutrophilia model
# Format: in vivo
# Settings: LPS aerosol, intratracheal dosing, in at least one of the range of conditions tested, significance p<0.05
# Description: Rat LPS Neutrophilia Model
# The effect of compounds on the influx of neutrophils to the lung in LPS-challenged rats is evaluated as follows. The test compound is suspended in one of the following solutions: 0.5% tween 80/PBS, 0.5% tween 80/saline, 10% EtOH/saline (with pH adjusted to 2.0, or 8.0 with HCl, or unadjusted), Saline @pH 2.0, 6.5 or 8.0, 0.5% Tragacanth, 1% DMSO/20% Encapsin/Saline, or acidified 5% Tragacanth. The suspension process may be aided by the use of a glass homogenizer. For intratracheal administration, the animals are anesthetized with inhaled isoflurane and placed in a supine position, the trachea is intubated with a steel gavage needle (1.5 inch, 22 gauge, small ball) or a Penn-Century Microsprayer Aerosolizer (model IA-1B) and 200 ul of dosing solution is delivered. The animals are visually monitored during the recovery process, which typically occurs within two minutes. It is noted that the test compounds may be alternatively administered via the microsprayer in a dry powder blend with a suitable excipient, such as lactose.
# Rats treated with compound or vehicle (15 min-24 hours pretreatment) are exposed to an LPS aerosol (100 ug/ml) for 15 min. Four hours later the rats are euthanized with pentobarbital (100 mg/kg, i.p.) and the airways are lavaged with 5 washes of 5 ml of phosphate buffered saline. The harvested cells are stained (Diffquick) and counted to determine total and differential cell data. […] Inhibition of neutrophil levels relative to no compound controls is calculated based on the differential counts.
# The data is obtained as % inhibition using a particular concentration and pretreat time.
row,Structure (SMILES),inhibition of neutrophilia
1,"Cc1ccc(C(=O)NC(C)C)cc1-c1nc(N2CCC(N3CCC(C)CC3)CC2)nc2c1ccc(=O)n2-c1c(F)cccc1F [163(c), 3-[8-(2,6-difluorophenyl)-2-(4-methyl-1,4′-bipiperidin-1′-yl)-7-oxo-7,8-dihydropyrido[2,3-d]pyrimidin-4-yl]-4-methyl-N-(1-methylethyl)benzamide]",statistically nonsignificant inhibition
2,"CCN(CC)CCCNc1nc(-c2cc(C(=O)NCC3CC3)ccc2C)c2ccc(=O)n(-c3c(F)cccc3F)c2n1 [Example 138, N-(cyclopropylmethyl)-3-[2-{[3-(diethylamino)propyl]amino}-8-(2,6-difluorophenyl)-7-oxo-7,8-dihydropyrido[2,3-d]pyrimidin-4-yl]-4-methylbenzamide trifluoroacetate]",statistically nonsignificant inhibition
3,"CCCCNC(=O)c1ccc(C)c(-c2nc(N3CCC(N4CCC(C)CC4)CC3)nc3c2ccc(=O)n3-c2c(F)cccc2F)c1 [Example 167, N-butyl-3-[8-(2,6-difluorophenyl)-2-(4-methyl-1,4′-bipiperidin-1′-yl)-7-oxo-7,8-dihydropyrido[2,3-d]pyrimidin-4-yl]-4-methylbenzamide]",statistically significant inhibition
4,"Cc1ccc(C(=O)Nc2ccc(F)cc2)cc1-c1nc(N2CCC(N)CC2)nc2c1ccc(=O)n2-c1c(F)cccc1F [Example 72, 3-[2-(4-amino-1-piperidinyl)-8-(2,6-difluorophenyl)-7-oxo-7,8-dihydropyrido[2,3-d]pyrimidin-4-yl]-N-(4-fluorophenyl)-4-methylbenzamide]",statistically significant inhibition
5,"CCN(CC)CCCNc1nc(-c2cc(C(=O)Nc3ccc(F)cc3)ccc2C)c2ccc(=O)n(-c3c(F)cccc3F)c2n1 [Example 160, 3-[2-{[3-(diethylamino)propyl]amino}-8-(2,6-difluorophenyl)-7-oxo-7,8-dihydropyrido[2,3-d]pyrimidin-4-yl]-N-(4-fluorophenyl)-4-methylbenzamide]",statistically significant inhibition
6,"Cc1ccc(C(=O)NC2CCC2)cc1-c1nc(N2CCC(N3CCC(C)CC3)CC2)nc2c1ccc(=O)n2-c1c(F)cccc1F [Example 175, N-cyclobutyl-3-[8-(2,6-difluorophenyl)-2-(4-methyl-1,4′-bipiperidin-1′-yl)-7-oxo-7,8-dihydropyrido[2,3-d]pyrimidin-4-yl]-4-methylbenzamide]",inactive
7,"Cc1ccc(C(=O)Nc2nccs2)cc1-c1nc(NCCNC(C)C)nc2c1ccc(=O)n2-c1c(F)cccc1F [Example 103, 3-[8-(2,6-difluorophenyl)-2-({2-[(1-methylethyl)amino]ethyl}amino)-7-oxo-7,8-dihydropyrido[2,3-d]pyrimidin-4-yl]-4-methyl-N-1,3-thiazol-2-ylbenzamide]",statistically significant inhibition
8,"Cc1ccc(C(=O)Nc2ccc(F)cc2)cc1-c1nc(NC2CC(C)(C)NC(C)(C)C2)nc2c1ccc(=O)n2-c1c(F)cccc1F [Example 66, 3-{8-(2,6-difluorophenyl)-7-oxo-2-[(2,2,6,6-tetramethyl-4-piperidinyl)amino]-7,8-dihydropyrido[2,3-d]pyrimidin-4-yl}-N-(4-fluorophenyl)-4-methylbenzamide]",statistically significant inhibition
9,"CCN(CC)CCCNc1nc(-c2cc(C(=O)Nc3ccccc3)ccc2C)c2ccc(=O)n(-c3c(F)cccc3F)c2n1 [Example 147, 3-[2-{[3-(diethylamino)propyl]amino}-8-(2,6-difluorophenyl)-7-oxo-7,8-dihydropyrido[2,3-d]pyrimidin-4-yl]-4-methyl-N-phenylbenzamide]",statistically nonsignificant inhibition
10,"Cc1ccc(C(=O)NC(C)C)cc1-c1nc(N2CCC(N)CC2)nc2c1ccc(=O)n2-c1c(F)cccc1F [Example 68, 3-[2-(4-amino-1-piperidinyl)-8-(2,6-difluorophenyl)-7-oxo-7,8-dihydropyrido[2,3-d]pyrimidin-4-yl]-4-methyl-N-(1-methylethyl)benzamide]",statistically significant inhibition
